According to patent US20250304549A1, “HYDROXYAMIDE DERIVATIVE AND USE THEREOF” (SICHUAN HUIYU PHARMACEUTICAL CO., LTD., priority 2022, published 2025):
Where a name gives a salt, the structure may show the parent alone.

Experiments:
LSD1 = LSD1 (Homo sapiens (Human), UniProt O60341); assay: In vitro enzyme inhibition assay - LSD1 (HTRF); assay type: biochemical
pan-HDAC = assay: In vitro enzyme inhibition assay - HDAC (HDAC-Glo I/II), pan-HDAC; assay type: biochemical
In short: (§1)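 The compound, serially diluted 5-fold in DMSO across 8 concentrations starting from a 1 mM stock, was made up as 4× working solutions in HDAC buffer. It was then tested in the HDAC-Glo I/II system, and luminescence was recorded. IC50 values came from variable-slope four-parameter curves of inhibition rate.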

HDAC8 = HDAC8 (Homo sapiens (Human), UniProt Q9BY41); assay: In vitro enzyme inhibition assay - HDAC (HDAC-Glo I/II), HDAC8; assay type: biochemical; settings: read-out: HDAC IC50 (nM) HDAC 8
In short: as §1

NCI-H1417 cells = assay: In vitro cell inhibition assay - H1417 cell proliferation (CellTiter-Glo); assay type: cell-based
In short: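 Cells exposed to 8 compound concentrations (5-fold dilutions) in BEGM with 10% FBS for 7 days at 37° C., 5% CO2. Viable cells measured by CellTiter-Glo luminescence; inhibition versus no-inhibitor and no-cell controls, IC50 fitted.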

NCI-H69 cells = assay: In vitro cell inhibition assay - NCI-H69 cell proliferation (CellTiter-Glo); assay type: cell-based
In short: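 Proliferation was assessed after a 7-day compound treatment of cells seeded at 1×10^3 per well. IC50 values came from fitting inhibition rates derived from CellTiter-Glo luminescence.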

DU145 cells = assay: In vitro cell inhibition assay - DU145 cell proliferation (CellTiter-Glo); assay type: cell-based
Protocol: 5. In Vitro Cell Inhibition Assay—DU145 Cell Proliferation
The inhibitory effect of the compounds on cell proliferation was assessed by detecting the number of viable cells using the CellTiter-Glo® reagent. DU145 cells in the logarithmic growth phase were collected and inoculated into transparent bottom 96-well plates at a density 1×10^3 cells per well with 100 μL medium, and incubated at 37° C., 5% CO2 overnight. The compounds were sequentially diluted in a 5-fold concentration gradient with DMSO to obtain 8 different concentrations. These were then diluted with RPMI-640 (containing 10% FBS) cell culture medium to obtain the compound working solution (2×), which was added to the cell supernatant at 100 μL per well. The incubation continued for 6 days at 37° C., 5% CO2. The plate was then removed and equilibrated at room temperature (25° C.) along with the CellTiter-Glo® mixing reagent for 10-30 minutes. After centrifugation, 120 μL of the culture medium was carefully aspirated from each well, and 60 μL of CellTiter-Glo® reagent was added. The cells were thoroughly mixed with the CellTiter-Glo® mixing reagent using a microplate shaker for 2 min. and then incubated at room temperature for 10 min. The 96-well plate was subsequently placed on a multifunctional microplate reader to record the Luminescence values (RLU).
The inhibition rate was calculated using the following formula: […]
Note: ‘Negative’ refers to the group without inhibitors; ‘Blank’ refers to the group without cells.
The IC50 value was determined by fitting the inhibition rate by GraphPad Prism software.

[1] = Homo sapiens, NCI-H1417, H1417 small cell lung cancer cell proliferation
[2] = Homo sapiens, NCI-H69, H69 small cell lung cancer cell proliferation
[3] = Homo sapiens, DU-145, Du145 prostate cancer cell proliferation

Sequence of HDAC8 (Q9BY41 whole entry): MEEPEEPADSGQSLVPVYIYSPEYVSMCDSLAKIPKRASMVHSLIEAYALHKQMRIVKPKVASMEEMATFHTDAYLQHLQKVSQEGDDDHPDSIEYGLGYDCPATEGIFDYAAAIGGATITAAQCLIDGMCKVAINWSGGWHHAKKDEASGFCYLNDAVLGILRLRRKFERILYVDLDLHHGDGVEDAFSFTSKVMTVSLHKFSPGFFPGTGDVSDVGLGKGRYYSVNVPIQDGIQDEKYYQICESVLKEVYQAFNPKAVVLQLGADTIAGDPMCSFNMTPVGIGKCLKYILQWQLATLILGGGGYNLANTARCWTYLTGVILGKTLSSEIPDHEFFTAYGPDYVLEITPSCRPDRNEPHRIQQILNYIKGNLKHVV

Row | IC50 (LSD1) [nM] | IC50 (pan-HDAC) [nM] | IC50 (HDAC8) [nM] | IC50 (NCI-H1417 cells; [1]) [nM] | IC50 (NCI-H69 cells; [2]) [nM] | IC50 (DU145 cells; [3]) [nM] | IC50 (NCI-H1417 cells; H1417 small cell lung cancer cell proliferation) [nM] | IC50 (NCI-H69 cells; H69 small cell lung cancer cell proliferation) [nM] | IC50 (DU145 cells; Du145 prostate cancer cell proliferation) [nM] | SMILES
1 | 21.2 | 186 | 152 | 125 | 678 | 2230 | – | – | – | COc1cc(-c2ccc(C(=O)N3CC[C@H](NCc4ccc(/C=C/C(=O)NO)cc4)C3)cc2-c2ccc(C#N)c(F)c2)ccc1O [Example 73, (S,E)-3-(4-(((1-(4″-Cyano-3″-fluoro-4-hydroxy-3-methoxy-[1,1]: 2′,1″-terphenyl]-4′-carbonyl)pyrrolidin-3-yl)amino)methyl)phenyl)-N-hydroxyacrylamide formate]
2 | – | – | – | 11.5 | 268 | 352 | – | – | – | COc1ccc(-c2cnc(N3CCC(Nc4ccc(/C=C/C(=O)NO)cc4)CC3)c(C#N)c2-c2ccc(C#N)c(F)c2)cc1O [Example 82, (E)-3-(4-((1-(3-Cyano-4-(4-cyano-3-fluorophenyl)-5-(3-hydroxy-4-methoxyphenyl)pyridin-2-yl)piperidin-4-yl)amino)phenyl)-N-hydroxyacrylamide formate]
3 | 18.6 | 21.7 | – | 501 | 2530 | 2850 | – | – | – | COc1ccc(-c2c(OCCCCCCC(=O)NO)cc(N3CCC(N)CC3)nc2-c2ccc(C#N)c(F)c2)cc1 [Example 8, 7-[(6-(4-Aminopiperidin-1-yl)-2-(4-cyano-3-fluorophenyl)-3-(4-methoxyphenyl)pyridin-4-yl)oxy]-N-hydroxyheptanamide trifluoroacetate]
4 | – | – | – | 661 | 121 | 320 | – | – | – | COc1cc(-c2cnc(N3CCC(NCc4ccc(/C=C/C(=O)NO)cc4)CC3)c(F)c2-c2ccc(C#N)c(F)c2)ccc1O [Example 77, (E)-3-(4-(((1-(4-(4-Cyano-3-fluorophenyl)-3-fluoro-5-(4-hydroxy-3-methoxyphenyl)pyridin-2-yl)piperidin-4-yl)amino)methyl)phenyl)-N-hydroxyacrylamide formate]
5 | 33.2 | 4.23 | – | > 1000 | 3640 | 3700 | – | – | – | COc1ccc(-c2c(OCCCCCCC(=O)NO)cc(N3CCC(N)CC3)nc2-c2ccc(C#N)c(C)c2)cc1O [Example 16, 7-((6-(4-Aminopiperidin-1-yl)-2-(4-cyano-3-methylphenyl)-3-(3-hydroxy-4-methoxyphenyl)pyridin-4-yl)oxy)-N-hydroxyheptanamide hydrochloride]
6 | 1.95 | 3.32 | – | 332 | 775 | 2770 | – | – | – | CN(C)c1ncc(-c2c(OCCCCCCC(=O)NO)cc(N3CCC(N)CC3)nc2-c2ccc(C#N)c(F)c2)cn1 [Example 13, 7-((6-(4-Aminopiperidin-1-yl)-2-(4-cyano-3-fluorophenyl)-3-(2-(dimethylamino)pyrimidin-5-yl)pyridin-4-yl)oxy)-N-hydroxyheptanamide formate]
7 | 1.72 | – | – | 31 | 95.8 | 129 | – | – | – | Cn1nnc2cc(-c3cnc(N4CCC(NCc5ccc(/C=C/C(=O)NO)cc5)CC4)c(C#N)c3-c3ccc(C#N)c(F)c3)ccc21 [Example 141, (E)-3-(4-(((1-(3-Cyano-4-(4-cyano-3-fluorophenyl)-5-(1-methyl-1H-benzo[d][1,2,3]triazol-5-yl)pyridin-2-yl)piperidin-4-yl)amino)methyl)phenyl)-N-hydroxyacrylamide formate]
8 | 0.13 | – | – | 1.29 | 1680 | 5060 | – | – | – | COc1ccc(-c2cnc(N3CCC(NCc4ccc(C(=O)NO)cc4)CC3)c(C#N)c2-c2ccc(C#N)c(F)c2)cc1O [Example 41, 4-(((1-(3-Cyano-4-(4-cyano-3-fluorophenyl)-5-(3-hydroxy-4-methoxyphenyl)pyridin-2-yl)piperidin-4-yl)amino)methyl)-N-hydroxybenzamide hydrochloride]
9 | – | – | – | > 1000 | 2520 | 3210 | – | – | – | Cn1cc2cc(-c3c(OCCCCCCC(=O)NO)cc(N4CCC(N)CC4)nc3-c3ccc(C#N)c(F)c3)ccc2n1 [Example 14, 7-((6-(4-Aminopiperidin-1-yl)-2-(4-cyano-3-fluorophenyl)-3-(2-methyl-2H-indazol-5-yl)pyridin-4-yl)oxy)-N-hydroxyheptanamide formate]
10 | 153 | – | – | – | – | – | 255 | 440 | 658 | COc1ccc(-c2cnc(N3CCC(NCc4ccc(/C=C/C(=O)NO)cc4)CC3)c(C(F)(F)F)c2-c2ccc(C#N)c(F)c2)cc1O [Example 147, (E)-3-(4-(4-(4-Cyano-3-fluorophenyl)-5-(3-hydroxy-4-methoxyphenyl)-3-(trifluoromethyl)pyridin-2-yl)piperidin-4-yl)amino)methyl) phenyl)-N-hydroxyacrylamide formate]
11 | – | 116 | – | > 1000 | 2360 | 2000 | – | – | – | N#Cc1ccc(-c2nc(N3CCC(N)CC3)cc(OCCCCCCC(=O)NO)c2-c2ccc(Cl)cc2)cc1F [Example 11, 7-((6-(4-Aminopiperidin-1-yl)-3-(4-chlorophenyl)-2-(4-cyano-3-fluorophenyl)pyridin-4-yl)oxy)-N-hydroxyheptanamide hydrochloride]
12 | 44.2 | – | – | 220 | 405 | 5190 | – | – | – | COc1ccc(-c2cnc(N3CCC(NCc4ccc(/C=C/C(=O)NO)cc4)CC3)c(C#N)c2-c2ccc(C#N)c(F)c2)c(O)c1O [Example 140, (E)-3-(4-(((1-(3-Cyano-4-(4-cyano-3-fluorophenyl)-5-(2,3-dihydroxy-4-methoxyphenyl)pyridin-2-yl)piperidin-4-yl)amino)methyl)phenyl)-N-hydroxyacrylamide formate]
13 | 1.06 | – | – | 8.93 | 8.76 | 21 | – | – | – | N#Cc1ccc(-c2c(-c3ccc(F)c(O)c3)cnc(N3CCC(NCc4ccc(/C=C/C(=O)NO)cc4)CC3)c2C#N)cc1F [Example 97, (E)-3-(4-((1-(3-Cyano-4-(4-cyano-3-fluorophenyl)-5-(4-fluoro-3-hydroxyphenyl)pyridin-2-yl)piperidin-4-yl)amino)methyl) phenyl)-N-hydroxyacrylamide formate]
14 | – | – | – | 343 | 1280 | 2840 | – | – | – | COc1cc(-c2cnc(N3CCC(NCCCc4ccc(C(=O)NO)cc4)CC3)c(C#N)c2-c2ccc(C#N)c(F)c2)ccc1O [Example 93, 4-(3-(3-Cyano-4-(4-cyano-3-fluorophenyl)-5-(4-hydroxy-3-methoxyphenyl)pyridin-2-yl)piperidin-4-yl)amino)propyl)-N-hydroxybenzamide formate]
15 | 36 | 41.3 | – | 762 | 2540 | 2960 | – | – | – | Cc1ccc(-c2c(OCCCCCCC(=O)NO)cc(N3CCC(N)CC3)nc2-c2ccc(C#N)c(F)c2)cc1 [Example 7, 7-[(6-(4-Aminopiperidin-1-yl)-2-(4-cyano-3-fluorophenyl)-3-(4-methylphenyl)pyridin-4-yl)oxy]-N-hydroxyheptanamide-hydrochloride]
16 | – | – | – | 623 | 906 | 2630 | – | – | – | COc1cc(-c2cnc(N3CCC(NCC4CCN(c5ccc(C(=O)NO)cc5)CC4)CC3)c(C#N)c2-c2ccc(C#N)c(F)c2)ccc1O [Example 91, 4-(4-(1-(3-Cyano-4-(4-cyano-3-fluorophenyl)-5-(4-hydroxy-3-methoxyphenyl)pyridin-2-yl)piperidin-4-yl)amino)methyl) piperidin-1-yl)-N-hydroxybenzamide formate]

Row | SMILES | IC50 (LSD1) [nM] | IC50 (pan-HDAC) [nM] | IC50 (HDAC8) [nM] | IC50 (NCI-H1417 cells; [1]) [nM] | IC50 (NCI-H69 cells; [2]) [nM] | IC50 (DU145 cells; [3]) [nM] | IC50 (NCI-H1417 cells; H1417 small cell lung cancer cell proliferation) [nM] | IC50 (NCI-H69 cells; H69 small cell lung cancer cell proliferation) [nM] | IC50 (DU145 cells; Du145 prostate cancer cell proliferation) [nM]
17 | COc1ccc(-c2cnc(N3CCC(CCc4ccc(/C=C/C(=O)NO)cc4)CC3)c(C#N)c2-c2ccc(C#N)c(F)c2)cc1O [Example 89, (E)-3-(4-(2-(1-(3-cyano-4-(4-cyano-3-fluorophenyl)-5-(3-hydroxy-4-methoxyphenyl)pyridin-2-yl)piperidin-4-yl)ethyl)phenyl)-N-hydroxyacrylamide] | – | – | – | > 1000 | 120 | 390 | – | – | –
